≈ marks a conversion by molar mass, not a printed value. Where two headings read alike, the source gives them in different places.
Legend:
ACAT (blood vessel wall) = test: ACAT inhibitory action, microsome enzyme from blood vessel wall (stethartery); format: biochemical, rabbits; conditions: for IC50: A = the blood vessel wall, microsome from stethartery of rabbits fed 1% cholesterol feed, 14C-oleoyl-CoA, 37°C, five minutes; for IC50 (B) /IC50 (A): ratio small intestine / blood vessel wall
Method: (§1) Microsome was prepared by a conventional method from stethartery of rabbits fed for eight weeks with a 1% cholesterol feed and was suspended in a 0.15M phosphate buffer (pH 7.4) to provide an enzyme solution. An enzyme solution derived from small intestine was prepared from small intestine or rabbits fed with normal feed. […] The solvent layer was concentrated to dryness, the residue was dissolved in hexane and the solution was spotted on a TLC plate (manufactured by Merck) followed by developing with hexane : ether : acetic acid (75:25:1). Radioactivity of the resulting cholesterol ester fraction was measured by a BAS 2000 (manufactured by Fuji Photo Film) and IC50 values were determined from a comparative calculation with the control to which only DMSO was added.

ACAT (small intestine) = test: ACAT inhibitory action, enzyme from small intestine; format: biochemical; conditions: B = the small intestine of rabbits fed normal feed; 14C-oleoyl-CoA, 37°C, three minutes
Method: as §1

J774 cells = test: ACAT inhibitory action (anti-foaming action) in J774 cells; conditions: for IC50 (HepG2) /IC50 (J774): ratio HepG2 / J774, 1080 min
Method: (§2) The medium was removed and, after washing with PBS twice, extraction was conducted with 1.5 ml of hexane : isopropanol (3:2) followed by concentrating to dryness. The extract was dissolved in 0.2 ml of isopropanol containing 10% of 10% Triton X-100 and total cholesterol (TC) and free cholesterol (FC) were determined by a Cholesterol E Test Wako (Wako Pure Chemicals) and a Free Cholesterol E Test Wako (Wako Pure Chemicals), respectively. Residue of the cells after extraction was solubilized with 0.25 ml of 2N NaOH at 30°C for 30 minutes and amount of protein was determined by means of a BCA Protein Assay Reagent (Pierce). From the difference between TC and FC, amount of cholesterol ester per protein was calculated and then IC50 was determined by means of a comparative calculation with the control.

HepG2 cells = test: ACAT inhibitory action (anti-foaming action) in HepG2 cells
Method: as §2

[1] = Disintegration test: solubility in liquid No.1 for disintegration test of the Japanese Pharmacopoeia; format: physicochemical; conditions: jp disintegration liquid no.1; pH 1.2; liquid No.1, shaken two hours, room temperature one hour, 0.45 µm filter
Method: Absorbance of a mixture of this filtrate with methanol in the same amounts was measured and, from the previously-determined ε1% 1cm values, solubility was calculated.

[2] = Mus musculus, J774, 18 h, read-out: Enzyme (J774) IC50(µM)
[3] = Homo sapiens, HepG2, 18 h, read-out: Enzyme (HepG2) IC50(µM)

Structure (SMILES)	IC50 (ACAT (blood vessel wall)) [nM]	IC50 (B) /IC50 (A) (ACAT (blood vessel wall))	IC50 (ACAT (small intestine)) [nM]	IC50 (HepG2) /IC50 (J774) (J774 cells)	IC50 (J774 cells; [2]) [µM]	IC50 (HepG2 cells; [3]) [µM]	solubility [1] [µg/mL]	IC50 (J774 cells; read-out: Enzyme (J774) IC50, J774 cells, 10 µg/ml 25-OH cholesterol, 18 hours, cholesterol ester per protein) [µM]	IC50 (HepG2 cells; read-out: Enzyme (HepG2) IC50, HepG2 cells, 10 µg/ml 25-OH cholesterol, 18 hours, cholesterol ester per protein) [µM]
COC(=O)c1cccc2nc(SCCCN3CCN(CC(=O)Nc4c(C(C)C)cccc4C(C)C)CC3)oc12 [Example 10, 2-[4-[3-(7-methoxycarbonylbenzoxazol - 2-ylthio)propyl]piperazin-1-yl]-N-(2,6-diisopropylphenyl) acetamide]	35	1.1	39	18.2	–	–	–	–	–
CC(C)c1cccc(C(C)C)c1NC(=O)CN1CCN(CCSc2nc3cccc(C(F)(F)F)c3o2)CC1 [Example 85, 2-[4-[2-(7-trifluoromethylbenzoxazol-2-ylthio)ethyl]piperazin-1-yl]-N-(2,6-diisopropylphenyl)acetamide]	12	4.9	59	>53	0.019	> 1	–	–	–
COc1cc(C(C)C)c(NC(=O)CN2CCN(CCSc3nc4ccccc4o3)CC2)c(C(C)C)c1 [Example 75, 2-[4-[2-(benzoxazol-2-ylthio)ethyl]-piperazin-1-yl]-N-(2,6-diisopropyl-4-methoxyphenyl)-acetamide]	38	5.5	210	>100	0.1	> 10	–	–	–
CC(C)c1cccc(C(C)C)c1NC(=O)C(C)(C)CCCOc1ccc2c(c1)C=C(c1nccn1C)C(CCc1ccc(F)cc1)O2 (stereo not shown) [Control 1, 5-[2-(2-(4-Fluorophenyl)ethyl)-3-(1-methyl-1H-imidazol-2-yl)-2H-1-benzopyran-6-yl]oxy-2,2-dimethyl-N-(2,6-diisopropylphenyl) -pentanamide, reference compound]	450	1.9	870	9.5	0.56	–	–	–	–
CCOCCOc1cc(C(C)C)c(NC(=O)CN2CCN(CCSc3nc4ccccc4o3)CC2)c(C(C)C)c1 [Example 78, 2-[4-[2-(benzoxazol-2-ylthio)ethyl]piperazin-1-yl]-N-[2,6-diisopropyl-4-(2-ethoxyethyl)oxyphenyl)acetamide]	40	5.3	210	58.6	0.014	0.82	–	–	–
COC(=O)c1cccc2oc(SCCN3CCN(CC(=O)Nc4c(C(C)C)cccc4C(C)C)CC3)nc12 [Example 5, 2-[4-[2-(4-methoxycarbonylbenzoxazol-2-ylthio)ethyl]-piperazin-1-yl]-N-(2,6-diisopropylphenyl) acetamide]	56	2.3	130	14.5	–	–	–	–	–
CCCC(CCCCC(=O)Nc1c(C(C)C)cccc1C(C)C)Sc1nc2ccccc2o1 (stereo not shown) [Control 5, 6-(Benzoxazol-2-ylthio)-N-(2,6-diisopropylphenyl)nonanamide]	–	–	–	–	–	–	0.05 (≈ 0.107 µM)	–	–
CCCCCCCCCN(CC(C)(C)C)C(=O)N[C@H]1CCCC[C@@H]1OC(=O)CCNC(=O)C1OC(C)(C)OCC1(C)C (stereo partly shown) [Control 3, reference compound]	34	–	56	–	–	–	–	–	–
CCCCCCCN(CCCCCSc1nc(-c2ccccc2)c(-c2ccccc2)[nH]1)c1nc2ccccc2o1 [Control 4, reference compound]	26	1.4	37	6.3	–	–	–	0.12	0.75
